Holding throughout (assay): relative viability (nuclei count vs DMSO), 5 days (fraction); higher = more cells survive
Compound in test [1]: C1CC1C(=O)NC2=NNC3=C2C=CC(=C3)C4=CC(=CC=C4)C(=O)NC5CC5 [XMD13-2] + COc1cc2c(Oc3ccc(NC(=O)C4(C(=O)Nc5ccc(F)cc5)CC4)cc3F)ccnc2cc1OCCCN1CCOCC1 [Foretinib] (partner 0.25 µM)
A digest of the protocol: (§1)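 Dosing by pin tool came one day after lung cancer cell lines were seeded in 1536-well plates, using either one drug or a fixed anchor-drug dose plus five library-drug doses (not always all listed) in √10 steps. After 5 days, nuclei were counted on 4× images. Relative viability is treated-well nuclei count divided by vehicle-well nuclei count, and values are medians of duplicate plates.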

Compound in test [2]: Cc1ccc(C(=O)Nc2cccc(C(F)(F)F)c2)cc1Nc1cncc(C(N)=O)c1 [ALW-II-49-7] + Cc1nc(NC(=O)N2CCC[C@H]2C(N)=O)sc1-c1ccnc(C(C)(C)C(F)(F)F)c1 [Alpelisib] (partner 2 µM)
In short, it runs like this:
as §1

Compound in test [3]: Cc1ccc(C(=O)Nc2cccc(C(F)(F)F)c2)cc1Nc1cncc(C(N)=O)c1 [ALW-II-49-7] + Nc1nc2[nH]cc(CCc3ccc(C(=O)N[C@@H](CCC(=O)O)C(=O)O)cc3)c2c(=O)[nH]1 [Pemetrexed] (partner 0.2 µM)
A digest of the protocol:
as §1

Compound in test [4]: Cc1nc(Nc2ncc(C(=O)Nc3c(C)cccc3Cl)s2)cc(N2CCN(CCO)CC2)n1 [Dasatinib] + COc1cccc2cc(-c3nc([C@H]4CC[C@H](C(=O)O)CC4)n4ncnc(N)c34)[nH]c12 [OSI-027] (partner 0.5 µM)
A digest of the protocol: as §1

For the cell line NCI-H650, the relative viability worked out at 1.16 in test [1] (first compound 0.05 µM); 1.02 in test [1] (first compound 0.1581 µM); 1.14 in test [1] (first compound 0.5 µM); 1.06 in test [1] (first compound 1.581 µM); 0.972 in test [1] (first compound 5 µM); 1.14 in test [2] (first compound 0.08 µM). Also, the relative viability was 1.08 in test [2] (first compound 0.253 µM); 1.13 in test [2] (first compound 0.8 µM); 0.353 in test [2] (first compound 2.53 µM); 0.669 in test [2] (first compound 8 µM); 0.985 in test [3] (first compound 0.08 µM); 0.962 in test [3] (first compound 0.253 µM). Moreover, the relative viability turned out to be 0.99 in test [3] (first compound 0.8 µM); 0.917 in test [3] (first compound 2.53 µM); 0.82 in test [3] (first compound 8 µM); 0.591 in test [4] (first compound 0.005 µM); 0.524 in test [4] (first compound 0.01581 µM); 0.493 in test [4] (first compound 0.05 µM). Moreover, the figures for the relative viability in test [4] (first compound 0.1581 µM) and in test [4] (first compound 0.5 µM) were 0.303 and 0.265, respectively.
Regarding BEN, the relative viability was found to be 0.802 in test [1] (first compound 0.05 µM); 0.829 in test [1] (first compound 0.1581 µM); 0.654 in test [1] (first compound 0.5 µM); 0.53 in test [1] (first compound 1.581 µM); 0.737 in test [1] (first compound 5 µM); 0.993 in test [2] (first compound 0.08 µM). Besides, the relative viability in test [2] (first compound 0.253 µM) came out at 0.93; in test [2] (first compound 0.8 µM), 0.936; in test [2] (first compound 8 µM), 1.17; in test [3] (first compound 0.08 µM), 0.8; in test [3] (first compound 0.253 µM), 0.88; in test [3] (first compound 0.8 µM), 0.757. Further, the relative viability in test [3] (first compound 2.53 µM) was found to be 0.902; in test [3] (first compound 8 µM), 0.81; in test [4] (first compound 0.005 µM), 0.262; in test [4] (first compound 0.01581 µM), 0.233; in test [4] (first compound 0.05 µM), 0.218; in test [4] (first compound 0.1581 µM), 0.214. For the same cell line, in test [4] (first compound 0.5 µM), the relative viability came to 0.187.
In the case of NCI-H23, the relative viability in test [1] (first compound 0.05 µM) came out at 1.21; in test [1] (first compound 0.1581 µM) it was 0.83; in test [1] (first compound 0.5 µM), 1.02; in test [1] (first compound 1.581 µM), 1.06; in test [1] (first compound 5 µM) it was 1.01; in test [2] (first compound 0.08 µM), 0.692. The relative viability in test [2] (first compound 0.253 µM) came to 0.803; in test [2] (first compound 0.8 µM), 0.613; in test [2] (first compound 2.53 µM) it was 0.726; in test [2] (first compound 8 µM) it was 0.985; in test [3] (first compound 0.08 µM) it was 0.59; in test [3] (first compound 0.253 µM) it was 0.672. Further, the relative viability amounted to 0.752 in test [3] (first compound 0.8 µM); 0.783 in test [3] (first compound 2.53 µM); 0.511 in test [3] (first compound 8 µM); 0.497 in test [4] (first compound 0.005 µM); 0.502 in test [4] (first compound 0.01581 µM); 0.615 in test [4] (first compound 0.05 µM). For the same cell line, the relative viability in test [4] (first compound 0.1581 µM) was 0.492; in test [4] (first compound 0.5 µM), 0.325.
On to NCI-H1975, for which the relative viability is 1.06 in test [1] (first compound 0.05 µM); 0.939 in test [1] (first compound 0.1581 µM); 0.96 in test [1] (first compound 0.5 µM); 0.978 in test [1] (first compound 1.581 µM); 0.982 in test [1] (first compound 5 µM); 0.534 in test [2] (first compound 0.08 µM). Moreover, the relative viability in test [2] (first compound 0.253 µM) worked out at 0.62; in test [2] (first compound 0.8 µM), 0.641; in test [2] (first compound 2.53 µM), 0.662; in test [2] (first compound 8 µM), 0.485; in test [3] (first compound 0.08 µM), 0.312; in test [3] (first compound 0.253 µM), 0.306. For the same cell line, the relative viability came out at 0.266 in test [3] (first compound 0.8 µM); 0.296 in test [3] (first compound 2.53 µM); 0.244 in test [3] (first compound 8 µM); 0.608 in test [4] (first compound 0.005 µM); 0.589 in test [4] (first compound 0.01581 µM); 0.556 in test [4] (first compound 0.05 µM). Besides, the relative viability in test [4] (first compound 0.1581 µM) came to 0.32; in test [4] (first compound 0.5 µM), 0.201.
COR-L 105: the relative viability in test [1] (first compound 0.05 µM) worked out at 1.16; in test [1] (first compound 0.1581 µM), 1.19; in test [1] (first compound 0.5 µM) it was 0.729; in test [1] (first compound 1.581 µM), 0.883; in test [1] (first compound 5 µM) it was 0.899; in test [2] (first compound 0.08 µM) it was 1.14. Also, the relative viability was determined as 1.03 in test [2] (first compound 0.253 µM); 0.894 in test [2] (first compound 0.8 µM); 0.93 in test [2] (first compound 2.53 µM); 0.943 in test [2] (first compound 8 µM); 1.16 in test [3] (first compound 0.08 µM); 1.06 in test [3] (first compound 0.253 µM). For the same cell line, the relative viability in test [3] (first compound 0.8 µM) was 1.21; in test [3] (first compound 2.53 µM) it was 0.959; in test [3] (first compound 8 µM), 0.974; in test [4] (first compound 0.005 µM), 0.555; in test [4] (first compound 0.01581 µM) it was 0.467; in test [4] (first compound 0.05 µM), 0.418. The values for the relative viability in test [4] (first compound 0.1581 µM) and in test [4] (first compound 0.5 µM) were 0.262 and 0.222, respectively.

Source of the values: the supplement of paper PMC10307832.
